{"source": "patent US20080305059A1", "about": "“Skin lightening compositions and methods” (priority 2007, published 2008)", "key": {"[1]": {"test_system": "skin color of forearm test sites", "assay": "Skin lightening efficacy on forearms, chromometric measurement of L value and ITA degree", "type": "in vivo, human", "conditions": "for ΔITA Degrees / ΔL Value: applied twice a day to forearm, 15 individuals, delta = percent change from baseline; for ΔITA Degrees / ΔL Value / adverse effects: 0.5% hexylresorcinol or 2% hydroquinone composition; for adverse effects: twice a day for eight weeks on forearms", "experimental": "The composition was prepared by mixing the components of Phase A-1 until a substantially homogenous mixture was obtained and then dispersing that mixture in Phase A-2 with moderate agitation. The mixture was mixed until a homogeneous clear dispersion was obtained. Then, the components of Phase B were combined, mixed and heated to 75° C. and then added to the Phase A-1/A-2 mixture. The so formed mixture was homogenized for 2-3 minutes to obtain a substantially uniform composition. Phase C was added and mixed until uniform. After cooling down to 50° C., Phases D, E and F in the listed order were added and mixed and the final composition then cooled down to room temperature. […] A second skin lightening composition was prepared in the same manner with the same formulation except that the highly purified hexylresorcinol was replaced with 2% hydroquinone (Eastman) and water adjusted accordingly. Each of the skin lightening compositions was applied to different test sites on the forearms of fifteen individuals. The compositions were applied twice a day, morning and evening, for eight weeks. The test sites as well as untreated sites on each forearm were evaluated by a trained clinical evaluator for brightness of skin, evenness of skin tone, appearance of skin, dryness of skin and radiance of skin using a 10 point scale prior to the first application and following Week 4 and Week 8. Each test site was evaluated for skin color change as represented by the change in L values and ITA.degree (Individual Topology Angle—COLIPA SPF test method) as measured by chromometric measurement. ITA° was calculated using the formula: ITA°=[Arc Tangent(L*−50)/b*)]180/3.1416 Wherein, L*value—lightness and b*—color in blue-yellow axis. The results of the testing were as presented in Table 3, wherein the delta represents the percent change in skin color from the baseline coloration of the untreated skin."}, "[2]": {"test_system": "skin of the infrascapular regions of the back", "assay": "Skin sensitivity: repeat occlusive patch test (nine inductive patchings plus challenge)", "type": "in vivo, human", "conditions": "5% dilution in corn oil, 111 subjects", "experimental": "Given the known sensitivity issues associated with commercial grade hexylresorcinol, evaluation of the skin sensitivity to the purified hexylresorcinol was also evaluated. Skin sensitivity was evaluated following the method cited in the reference Appraisal of the Safety of Chemicals in Food, Drugs and Cosmetics, published by The Association of Food and Drug Officials of The United States. The specific method employed used nine inductive patchings, not the ten cited in the reference, under occlusive patch conditions. Samples were prepared for evaluation by diluting the highly pure hexylresorcinol in corn oil to a 5% concentration, with dilutions freshly prepared on each application day. 0.2 ml of the diluted test material was dispensed onto occlusive, hypoallergenic patches and the treated patches applied directly to the skin of the infrascapular regions of the back, to the right or left of the midline of each subject: one hundred and eleven subjects were employed. […] If evidence of a reaction was found, the area of edema and/or erythema was then measured and recorded: edema being estimated by an evaluation of the skin with respect to the contour of the unaffected normal skin. […] The challenge or retest sites were monitored and scored 24 and 48 hours after application."}}, "data": [{"smiles": "CCCCCCc1ccc(O)cc1O", "note": "[Hexylresorcinol, 4-Hexylresorcinol]", "values": [{"measurement": "change in skin color compared with the 2% hydroquinone composition", "setting": "[1]; 0.5% composition, eight weeks twice a day", "value": "comparable, statistically significant"}, {"measurement": "ΔITA Degrees", "setting": "[1]; Week 4", "value": 27.48, "unit": "%"}, {"measurement": "ΔL Value", "setting": "[1]; Week 4", "value": 3.4, "unit": "%"}, {"measurement": "ΔITA Degrees", "setting": "[1]; Week 8", "value": 37.56, "unit": "%"}, {"measurement": "ΔL Value", "setting": "[1]; Week 8", "value": 4.67, "unit": "%"}, {"measurement": "adverse effects", "setting": "[1]", "value": "No adverse effects"}, {"measurement": "primary irritation (edema or erythema)", "setting": "[2]; 0.2 ml occlusive patch, nine 24 hour exposures", "value": "NON-PRIMARY IRRITANT"}, {"measurement": "sensitization after challenge patch", "setting": "[2]; challenge after 10-14 day rest, scored 24 and 48 hours", "value": "NON-PRIMARY SENSITIZER"}]}, {"smiles": "Oc1ccc(O)cc1", "note": "[Hydroquinone, hydroquinone, reference compound]", "values": [{"measurement": "ΔITA Degrees", "setting": "[1]; Week 4", "value": 27.66, "unit": "%"}, {"measurement": "ΔL Value", "setting": "[1]; Week 4", "value": 3.24, "unit": "%"}, {"measurement": "ΔITA Degrees", "setting": "[1]; Week 8", "value": 39.38, "unit": "%"}, {"measurement": "ΔL Value", "setting": "[1]; Week 8", "value": 4.27, "unit": "%"}, {"measurement": "adverse effects", "setting": "[1]", "value": "No adverse effects"}]}]}
